Measurements taken from PubChem BioAssay AID1963960 (Molecular Pharmacology Branch, DTP, NCI, 2024).

System: MDA-MB-468 spheroids with HUVEC/MSC, viability
Assay: Anticancer human tumor MDA-MB-468 cell line growth inhibition [PI3K];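 also: spheroids exposed to agents for seven days before readout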;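 as to viability, T/C: 100% = DMSO vehicle control viability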
Conditions: for IC50: curve of first compound; for viability, T/C: stronger effect = lower value
Procedure, shortened: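 Stroma-containing spheroids: tumor line, pooled-donor HUVEC, hMSC. Treatments: targeted agents with PI3K inhibitors. Dosing: clinically relevant, half-log spacing, 10 microM ceiling without known Cmax. Read-out: cell viability.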

[1] = second compound 0.00316 µM, first compound 0.0316 µM
[2] = second compound 0.00316 µM, first compound 0.1 µM
[3] = second compound 0.00316 µM, first compound 0.316 µM
[4] = second compound 0.00316 µM, first compound 1 µM
[5] = second compound 0.00316 µM, first compound 3.16 µM
[6] = second compound 0.00316 µM, first compound 10 µM
[7] = second compound 0.01 µM, first compound 0.0316 µM
[8] = second compound 0.01 µM, first compound 0.1 µM
[9] = second compound 0.01 µM, first compound 0.316 µM
[10] = second compound 0.01 µM, first compound 1 µM
[11] = second compound 0.01 µM, first compound 3.16 µM
[12] = second compound 0.01 µM, first compound 10 µM
[13] = second compound 0.0316 µM, first compound 0.0316 µM
[14] = second compound 0.0316 µM, first compound 0.1 µM
[15] = second compound 0.0316 µM, first compound 0.316 µM
[16] = second compound 0.0316 µM, first compound 1 µM
[17] = second compound 0.0316 µM, first compound 3.16 µM
[18] = second compound 0.0316 µM, first compound 10 µM
[19] = second compound 0.1 µM, first compound 0.0316 µM
[20] = second compound 0.1 µM, first compound 0.1 µM
[21] = second compound 0.1 µM, first compound 0.316 µM
[22] = second compound 0.1 µM, first compound 1 µM
[23] = second compound 0.1 µM, first compound 3.16 µM
[24] = second compound 0.1 µM, first compound 10 µM
[25] = second compound 0.316 µM, first compound 0.0316 µM
[26] = second compound 0.316 µM, first compound 0.1 µM
[27] = second compound 0.316 µM, first compound 0.316 µM
[28] = second compound 0.316 µM, first compound 1 µM
[29] = second compound 0.316 µM, first compound 3.16 µM
[30] = second compound 0.316 µM, first compound 10 µM
[31] = second compound 1 µM, first compound 0.0316 µM
[32] = second compound 1 µM, first compound 0.1 µM
[33] = second compound 1 µM, first compound 0.316 µM
[34] = second compound 1 µM, first compound 1 µM
[35] = second compound 1 µM, first compound 3.16 µM
[36] = second compound 1 µM, first compound 10 µM

C=CC(=O)N1CCN(c2nc(=O)n(-c3c(C)ccnc3C(C)C)c3nc(-c4c(O)cccc4F)c(F)cc23)C(C)C1 (stereo not drawn) + CC(Nc1ccc2c(c1)OCCn1cc(N3C(=O)OCC3C(F)F)nc1-2)C(N)=O
IC50 (second compound 0.00316 µM): > 10000 nM
IC50 (second compound 0.01 µM): > 10000 nM
IC50 (second compound 0.0316 µM): > 10000 nM
IC50 (second compound 0.1 µM): > 10000 nM
IC50 (second compound 0.316 µM): > 10000 nM
IC50 (second compound 1 µM): 7860 nM
viability, T/C [1]: 85.4%
viability, T/C [2]: 92.4%
viability, T/C [3]: 98.7%
viability, T/C [4]: 107%
viability, T/C [5]: 98.3%
viability, T/C [6]: 82.5%
viability, T/C [7]: 91.3%
viability, T/C [8]: 101%
viability, T/C [9]: 82.3%
viability, T/C [10]: 101%
viability, T/C [11]: 97.3%
viability, T/C [12]: 73%
viability, T/C [13]: 92.5%
viability, T/C [14]: 95.3%
viability, T/C [15]: 87.1%
viability, T/C [16]: 86.8%
viability, T/C [17]: 96.4%
viability, T/C [18]: 66.1%
viability, T/C [19]: 104%
viability, T/C [20]: 82.5%
viability, T/C [21]: 87.4%
viability, T/C [22]: 102%
viability, T/C [23]: 86%
viability, T/C [24]: 59.6%
viability, T/C [25]: 84.5%
viability, T/C [26]: 66.2%
viability, T/C [27]: 76.4%
viability, T/C [28]: 91.4%
viability, T/C [29]: 93.6%
viability, T/C [30]: 55.9%
viability, T/C [31]: 82.6%
viability, T/C [32]: 93.9%
viability, T/C [33]: 77.8%
viability, T/C [34]: 84.7%
viability, T/C [35]: 64%
viability, T/C [36]: 46.3%

CCN1CCN(Cc2ccc(Nc3ncc(F)c(-c4cc(F)c5nc(C)n(C(C)C)c5c4)n3)nc2)CC1 + CC(Nc1ccc2c(c1)OCCn1cc(N3C(=O)OCC3C(F)F)nc1-2)C(N)=O
IC50 (second compound 0.00316 µM): > 1000 nM
IC50 (second compound 0.01 µM): > 1000 nM
IC50 (second compound 0.0316 µM): > 1000 nM
IC50 (second compound 0.1 µM): > 1000 nM
IC50 (second compound 0.316 µM): 855 nM
IC50 (second compound 1 µM): > 1000 nM
viability, T/C (second compound 0.00316 µM, first compound 0.00316 µM): 94%
viability, T/C (second compound 0.00316 µM, first compound 0.01 µM): 98.2%
viability, T/C [1]: 91.5%
viability, T/C [2]: 103%
viability, T/C [3]: 98.9%
viability, T/C [4]: 70.1%
viability, T/C (second compound 0.01 µM, first compound 0.00316 µM): 101%
viability, T/C (second compound 0.01 µM, first compound 0.01 µM): 117%
viability, T/C [7]: 83.4%
viability, T/C [8]: 100%
viability, T/C [9]: 94.5%
viability, T/C [10]: 70.5%
viability, T/C (second compound 0.0316 µM, first compound 0.00316 µM): 103%
viability, T/C (second compound 0.0316 µM, first compound 0.01 µM): 108%
viability, T/C [13]: 99.2%
viability, T/C [14]: 85.5%
viability, T/C [15]: 104%
viability, T/C [16]: 59.2%
viability, T/C (second compound 0.1 µM, first compound 0.00316 µM): 106%
viability, T/C (second compound 0.1 µM, first compound 0.01 µM): 95.5%
viability, T/C [19]: 99.2%
viability, T/C [20]: 105%
viability, T/C [21]: 89.4%
viability, T/C [22]: 54.3%
viability, T/C (second compound 0.316 µM, first compound 0.00316 µM): 106%
viability, T/C (second compound 0.316 µM, first compound 0.01 µM): 92.7%
viability, T/C [25]: 79.9%
viability, T/C [26]: 93.3%
viability, T/C [27]: 84.6%
viability, T/C [28]: 44.2%
viability, T/C (second compound 1 µM, first compound 0.00316 µM): 108%
viability, T/C (second compound 1 µM, first compound 0.01 µM): 81.7%
viability, T/C [31]: 88.6%
viability, T/C [32]: 88.3%
viability, T/C [33]: 88.3%
viability, T/C [34]: 51.8%

Cn1ncc(Cl)c1-c1cc(C(=O)NC(CN)Cc2cccc(F)c2)sc1Cl (stereo not drawn) + CC(Nc1ccc2c(c1)OCCn1cc(N3C(=O)OCC3C(F)F)nc1-2)C(N)=O
IC50 (second compound 0.00316 µM): 306 nM
IC50 (second compound 0.01 µM): 359 nM
IC50 (second compound 0.0316 µM): 284 nM
IC50 (second compound 0.1 µM): 229 nM
IC50 (second compound 0.316 µM): 157 nM
IC50 (second compound 1 µM): 133 nM
viability, T/C [1]: 89.7%
viability, T/C [2]: 72.2%
viability, T/C [3]: 42.9%
viability, T/C [4]: 35.6%
viability, T/C [5]: 22%
viability, T/C [6]: 7.53%
viability, T/C [7]: 83.7%
viability, T/C [8]: 74.4%
viability, T/C [9]: 44.8%
viability, T/C [10]: 36.4%
viability, T/C [11]: 25.6%
viability, T/C [12]: 5.85%
viability, T/C [13]: 91.2%
viability, T/C [14]: 71.8%
viability, T/C [15]: 39.9%
viability, T/C [16]: 33.7%
viability, T/C [17]: 22.1%
viability, T/C [18]: 3.85%
viability, T/C [19]: 78.7%
viability, T/C [20]: 63.6%
viability, T/C [21]: 39.8%
viability, T/C [22]: 33.6%
viability, T/C [23]: 20.8%
viability, T/C [24]: 4.34%
viability, T/C [25]: 75.8%
viability, T/C [26]: 59.6%
viability, T/C [27]: 33.8%
viability, T/C [28]: 27.5%
viability, T/C [29]: 19.2%
viability, T/C [30]: 4.28%
viability, T/C [31]: 76.2%
viability, T/C [32]: 53%
viability, T/C [33]: 37.2%
viability, T/C [34]: 21.8%
viability, T/C [35]: 18.9%
viability, T/C [36]: 3.04%

Cn1nccc1Nc1nccc(-c2ccn(C(CO)c3ccc(Cl)c(F)c3)c(=O)c2)n1 (stereo not drawn) + CC(Nc1ccc2c(c1)OCCn1cc(N3C(=O)OCC3C(F)F)nc1-2)C(N)=O
IC50 (second compound 0.00316 µM): > 10000 nM
IC50 (second compound 0.01 µM): > 10000 nM
IC50 (second compound 0.0316 µM): > 10000 nM
IC50 (second compound 0.1 µM): > 10000 nM
IC50 (second compound 0.316 µM): > 10000 nM
IC50 (second compound 1 µM): > 10000 nM
viability, T/C [1]: 85.3%
viability, T/C [2]: 96.8%
viability, T/C [3]: 87.2%
viability, T/C [4]: 90.4%
viability, T/C [5]: 96.1%
viability, T/C [6]: 87.9%
viability, T/C [7]: 97%
viability, T/C [8]: 89.1%
viability, T/C [9]: 87.8%
viability, T/C [10]: 94.9%
viability, T/C [11]: 101%
viability, T/C [12]: 82.6%
viability, T/C [13]: 95.3%
viability, T/C [14]: 86.6%
viability, T/C [15]: 88.6%
viability, T/C [16]: 80.1%
viability, T/C [17]: 108%
viability, T/C [18]: 77.8%
viability, T/C [19]: 88%
viability, T/C [20]: 89.2%
viability, T/C [21]: 77.7%
viability, T/C [22]: 81%
viability, T/C [23]: 87.5%
viability, T/C [24]: 73.1%
viability, T/C [25]: 90%
viability, T/C [26]: 82.5%
viability, T/C [27]: 89.6%
viability, T/C [28]: 87.6%
viability, T/C [29]: 82.7%
viability, T/C [30]: 60.7%
viability, T/C [31]: 85.5%
viability, T/C [32]: 74.3%
viability, T/C [33]: 74.7%
viability, T/C [34]: 74.8%
viability, T/C [35]: 81.2%
viability, T/C [36]: 55.2%
